Measurements: patent publication US20040018500A1, “Methods and systems for analyzing complex biological systems” (priority 2001, published 2004)

Assays:
[1] = tested on: Saccharomyces cerevisiae wild type strain BY4743; assay: AF1 combined gene expression and metabolite data mapped to KEGG reactions and pathways; format: cell-based
Description: In AF1, two different technologies were utilized: gene expression analysis (for examination of mRNA expression) and metabolite analysis. […] As noted previously, existing metabolic databases may be helpful in practicing the methods and systems of the present invention, but many databases include limitations that make their use in data analysis and pathway mapping less than straightforward. […] This caveat to KEGG makes it difficult to pinpoint the correct pathway when attempting to link a gene to a specific pathway. […] The pathway score indicates how meaningful the mapping is, or how likely it is to be correctly indicative of the pathway involved in the perturbation under examination. The method provides a pathway score based on perturbation levels of genes and/or compounds and the information content of each gene and/or compound in the pathway, i.e., a pathway score indicates the extent to which other pathways are mapped to a gene/compound. For example, imagine that two genes are perturbed in a particular experiment. One gene maps to only one pathway, giving a high degree of probability that the perturbed pathway is the one identified in the mapping. The second gene maps to three pathways. In the later example, there is only one-third the probability that the pathway identified in the mapping is the one perturbed. The present invention provides a method for calculating the pathway scores, so that more weight is given to a score of a gene or compound that maps to only one pathway than to a score of a gene or compound that maps to multiple pathways. […] Where n=the total number of genes in the pathway; ipath—count=the number of pathways containing a gene; and j=the number of genes in the pathway that are perturbed. Another factor to be considered when weighting a pathway score is the degree of perturbation. Degree of perturbation can be calculated, for example, based on a number of standard deviations from a norm, and included in an equation such as the one shown above, so that not only the number of pathways is taken into account, but also accounts for the amount of gene transcript or compound present as compared to a control. Compounds were also linked to pathways using the KEGG database. […] Of the 676 compounds under consideration, 77 were detected in the AF1 samples. […] The multiple mapping feature of KEGG makes it difficult to pinpoint the correct pathway when trying to link a compound to a specific pathway. […] A pathway score calculation is applied to the compounds to account for both information content (number of pathways a compound maps to) and perturbation level. The data were then combined to determine the number of reactions showing an enzyme and at least one compound perturbed, and to determine the number of pathways having at least one enzyme and one perturbed compound perturbed. The results of the analysis are represented in Tables 16 and 17, and were difficult to interpret, illustrating that the ability to draw conclusions from compound mapping to pathways is limited when absent additional data.

[2] = tested on: Saccharomyces cerevisiae wild type strain BY4743; assay: AF1 metabolite analysis (GC-MS, LC-MS) of yeast treated with antifungal drugs; format: cell-based

## CC(=O)N1CCN(c2ccc(OCC3COC(Cn4ccnc4)(c4ccc(Cl)cc4Cl)O3)cc2)CC1 (stereo not drawn) [Ketoconazole]
[1]
  Number of Reactions Having an Enzyme and at Least One Compound Perturbed: 21
[2]; P < 0.1, yeast, 2×MIC, two hours
  # Compounds perturbed: 15

## OC(Cn1cncn1)(Cn1cncn1)c1ccc(F)cc1F [Fluconazole]
[1]
  Number of Reactions Having an Enzyme and at Least One Compound Perturbed: 2
[2]; GC
  Fold Change of alanine: 0.3084
  Fold Change of asparagine: 0.3999
  Fold Change of aspartic acid: 0.4337
  Fold Change of campesterol: 0
  Fold Change of desmosterol: 0
  Fold Change of disaccaride1: 0.3883
  Fold Change of disaccaride2: 0.1517
  Fold Change of disaccaride3: 0.5803
  Fold Change of ergosterol: 0.948
  Fold Change of fucosterol: 6.665
  Fold Change of glutamine: 0.5242
  Fold Change of glycanopyrose: 1.202
  Fold Change of glycerol: 0.2187
  Fold Change of glycine: −0.1037
  Fold Change of hexadecanoic acid: 0.1343
  Fold Change of iso citric acid: 0.3923
  Fold Change of isoleucine: 0.391
  Fold Change of lanosterol: 8.462
  Fold Change of leucine: 0.3387
  Fold Change of lysine: 0.3412
  Fold Change of malic acid: 0.3975
  Fold Change of mevalonic acid lactone: 0.2333
  Fold Change of octadecanoic acid: 0.082
  Fold Change of oleic acid: −0.3073
  Fold Change of ornithine2: 0.4473
  Fold Change of ornithine3: 0.2647
  Fold Change of palmiteliadic acid: −0.08867
  Fold Change of phenylalanine: 0.2774
  Fold Change of phosphate: −0.508
  Fold Change of pyrimidine: 0.2457
[2]; LC
  Fold Change of abscisic acid: 0
  Fold Change of adenosine: 0
  Fold Change of glutamine/lysine: 0.2242
  Fold Change of guanosine: −0.9981
[2]; nLC
  Fold Change of 2-ketobutyric acid: −0.9992
  Fold Change of 2-ketoglutaric: −0.9995
  Fold Change of 3-indolylacetonitri: −0.9998
  Fold Change of 4-methylcatechol: 0
  Fold Change of 4aminobutyrate/dimg: 0.1384
  Fold Change of 5hydroxyLtryptophan: 0
  Fold Change of 6-benzylaminopurine: 0
  Fold Change of DLaminoadipic acid: 0.443
  Fold Change of NacetylDglucosamine: 0
  Fold Change of NacetylLglutamate: 0.1369
  Fold Change of NacetylLornithine: 0
  Fold Change of abscisic acid: 0
  Fold Change of aconitic acid: 0.6483
  Fold Change of adenine: 0
  Fold Change of adenosine: 0
  Fold Change of alanine: 0.399
  Fold Change of allantoic acid: 0.2392
  Fold Change of allantoin: 0.3942
  Fold Change of anthranilic acid: 0
  Fold Change of arginine: 0.6484
  Fold Change of argininosuccinate: 0
  Fold Change of asparagine: 0.3545
  Fold Change of aspartic: 0.4993
  Fold Change of benzoic acid: 0
  Fold Change of biotin: 0.3455
  Fold Change of caffeic acid: −0.4711
  Fold Change of catechol: 0
  Fold Change of cinnamic acid: 0
  Fold Change of citricanoic/itaconi: 0
  Fold Change of citrulline: 0
  Fold Change of coumaric acid: 0
  Fold Change of cytidine: −0.7969
  Fold Change of cytosine: 0
  Fold Change of decanoic acid: 0.1846
  Fold Change of diaminopimelic acid: 0
  Fold Change of dihydrofolic acid: 0
  Fold Change of estrone: 0
  Fold Change of farnesol: 0
  Fold Change of folic acid: 0
  Fold Change of fumaric/3m2oxobutan: 0.6009
  Fold Change of gallic acid: 0.5071
  Fold Change of gibberellic: 0
  Fold Change of giutamine/lysine: 0.3309
  Fold Change of glucosamine6PO4: −0.9951
  Fold Change of glutamic/acetylseri: 0.3842
  Fold Change of guanine: 0
  Fold Change of guanosine: −0.993
  Fold Change of histidine: 0
  Fold Change of homogentisic/uric: 0
  Fold Change of hydrocortisone: 0
  Fold Change of indole3pyruvic acid: 0
  Fold Change of inostol/glucos/sorb: −0.4744
  Fold Change of isocitric/citric/qu: 1.457
  Fold Change of jasmonic acid: 0
  Fold Change of kinetin: 0
  Fold Change of lactic acid: −0.0439
  Fold Change of lauric acid: 0.3906
  Fold Change of leucine/isoleucine/: 0.3306
  Fold Change of luteolin: 0
  Fold Change of malic acid: 0.4366
  Fold Change of malonic acid: 0
  Fold Change of menthol*: 0.04758
  Fold Change of methionine: 0
  Fold Change of nicotinic acid: 2.443
  Fold Change of nopaline: 0.3432
  Fold Change of oleic acid: −0.01684
  Fold Change of ornithine: 0.3508
  Fold Change of orotic acid: 0
  Fold Change of palmitic acid: −0.0233
  Fold Change of phenylalanine: 0.1527
  Fold Change of phenylpyruvic acid: 0
  Fold Change of phosphoenolpyruvate: 0
  Fold Change of pinitol: 0
  Fold Change of pipecolic acid: 0.2901
  Fold Change of porphobilinogen: 0
  Fold Change of proline: 0.4164
  Fold Change of pyridoxine: −0.04201
[2]; pLC
  Fold Change of 4-aminobenzoic acid: 0
  Fold Change of 4-methylcatechol: 0
  Fold Change of 4ambutyrate/dimglyc: −0.4383
  Fold Change of 5hydroxyLtryptophan: 0
  Fold Change of 6benzylaminopurine: 0
  Fold Change of DL-aminoadipic acid: 0.1155
  Fold Change of NacetylDglucosamine: 0
  Fold Change of NacetylLglutamate: 0
  Fold Change of NacetylLornithine: 0.1584
  Fold Change of adenine: −0.09439
  Fold Change of alanine/sarcosine: 0.1269
  Fold Change of allantoic acid: 0
  Fold Change of anthranilic acid: 0
  Fold Change of arginine: 0.1179
  Fold Change of argininosuccinate: 0
  Fold Change of asparagine: 0.3192
  Fold Change of aspartic acid: 0.214
  Fold Change of biotin: 0
  Fold Change of caffeine: 0
  Fold Change of citric acid TME: 0
  Fold Change of citrulline: 0.08252
  Fold Change of cytidine: 0
  Fold Change of cytosine: 0
  Fold Change of diaminopimelic acid: 0
  Fold Change of dihydrofolic acid: 0
  Fold Change of dipicolinic acid: 0
  Fold Change of folic acid: 0
  Fold Change of glucosamine: 0
  Fold Change of glucosamine6PO4: 0
  Fold Change of glutamate: −0.06179
  Fold Change of glutathione: −0.05832
  Fold Change of histidine: 0
  Fold Change of hydrocortisone: 0
  Fold Change of hypoxanthine: 0.1298
  Fold Change of itaconic acid dimes: 0
  Fold Change of kinetin: 0
  Fold Change of leucine/isoleucine/: 0.1638
  Fold Change of luteolin: 0
  Fold Change of mannitol: 0.152
  Fold Change of methionine: −0.2906
  Fold Change of mevalonic lactone: −0.5175
  Fold Change of niacinamide: 0
  Fold Change of nicotinic acid: −0.7982
  Fold Change of nopaline: 0
  Fold Change of ornithine: 0.4775
  Fold Change of phenylalanine: −0.1809
  Fold Change of phosphoenolpyruvate: 0
  Fold Change of pipecolic acid: 0.2583
  Fold Change of progesterone: 0
  Fold Change of proline: 0.2075
  Fold Change of pyridoxine: −0.3831
